Reference: PMC7521041 (Current Genomics, 2020)

target: T1, Alr0765 (Nostoc sp. PCC 7120 = FACHB-418, UniProt A0ACD7RPC9); experiment: FTIR amide I conformational change; type: binding; conditions: 3 mM ligand, 1.3 mM protein, pH 8.0, 25 C
T1 sequence (A0ACD7RPC9 1-204): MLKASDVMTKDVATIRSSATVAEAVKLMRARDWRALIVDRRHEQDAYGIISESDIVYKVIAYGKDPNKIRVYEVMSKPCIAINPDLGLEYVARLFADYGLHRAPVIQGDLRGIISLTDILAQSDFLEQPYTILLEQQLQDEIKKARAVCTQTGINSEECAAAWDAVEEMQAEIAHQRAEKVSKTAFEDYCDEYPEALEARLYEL

Row | Compound | FTIR amide I conformational change
1 | NC(=O)C1=CN([C@@H]2O[C@H](COP(=O)(O)OP(=O)(O)OC[C@H]3O[C@@H](n4cnc5c(N)ncnc54)[C@H](O)[C@@H]3O)[C@@H](O)[C@H]2O)C=CC1 [NADH] | Alr0765 binds with adenosyl ligands, which led to conformational changes
2 | Nc1ncnc2c1ncn2[C@@H]1O[C@H](COP(=O)(O)OP(=O)(O)O)[C@@H](O)[C@H]1O [ADP] | Alr0765 binds with adenosyl ligands, which led to conformational changes
3 | Nc1ncnc2c1ncn2[C@@H]1O[C@H](COP(=O)(O)O)[C@@H](O)[C@H]1O [AMP] | Alr0765 binds with adenosyl ligands, which led to conformational changes
